Data on 3 molecules can be found in publication PMC10307035, “Antiviral activity of singlet oxygen-photogenerating perylene compounds against SARS-CoV-2: Interaction with the viral envelope and photodynamic virion inactivation” (Virus Research, 2023).

SMILES strings stand for the structures.

Data set [1] concerns Vero cells. Nature of the data set: Cytotoxicity assay (Cell Counting Kit-8) in Vero cells. Type of data set: cell-based, African Green Monkey. The settings on record: 10 µM, 48 h. The method, then: To determine the overall cytotoxicity of the tested compounds, Vero cells were cultured for 24 h in 96-well plates to form a confluent monolayer, and then were treated with the tested compounds at concentrations of 2 and 10 µM. After 48 h of cultivation in the dark at 37 °C under 5% CO2, the cell culture medium was aspirated. The potential cytotoxicity of the tested perylene derivatives was determined based on cell viability using Cell Counting Kit-8 (Dojindo Molecular Technologies, Munich, Germany) according to the manufacturer's instructions. The cell viabilities of compound-treated Vero cells were compared with those of control DMSO-treated cells. We also used the above-described protocol to assess the cytotoxicity of the selected perylene antivirals, at concentrations ranging from 0 to 10 µM, in CaCo-2 and CRFK cells.

Data set [2] can be described thus: ROS generation measurement with DMA trap in DMSO. Conditions: 465–480 nm, 30 mW/cm^2, 10 min. The class given is physicochemical. The method, then: ROS generation was also estimated using 9,10-dimethylanthracene (DMA), another specific fluorescent singlet oxygen trap, which forms nonfluorescent 9,10-dimethylanthracene endoperoxide after ROS-mediated DMA oxidation. Compounds (0, 0.1, 1, and 10 µM) in DMSO were mixed with DMA (0.5 µM), and these solutions were irradiated for 10 min at room temperature (RT) with light-emitting diodes (LED, 465–480 nm) having approximate power density of 30 mW/cm^2 (device description in Fig. S7). DMA fluorescence intensity was measured at ex/em wavelengths of 370/432 nm in the presence or absence of α-tocopherol (3 µg/mL) as an antioxidant. Singlet oxygen generation was accompanied by a decreased fluorescence signal of the DMA probe ([Zeng et al., 2020]).

Data set [3] is described as follows: Spectrofluorometric analysis of interaction with liposomes. The class given is physicochemical. Conditions: for penetration into liposomal membranes (in words): EPC/Chol 70/30 mol% liposomes.
Data set [4] in a line: Fluorescence quantum yield determination. Type of data set: physicochemical. The settings on record: in DMSO, relative to rhodamin B. The method, then: The samples’ steady-state fluorescence characteristics were measured in L-format using a Chronos DFD Fluorescence spectrometer (ISS, USA) equipped with a 300 W Cermax xenon arc lamp (ISS, USA), a concave holographic grating monochromator, and a PMT detector. The required amount of each sample was diluted in DMSO and measured in a 1-cm quartz cuvette at a constant temperature of 25 °C. The resulting data were evaluated using Vinci software (ISS, USA) and correlated to the utilized optical configuration.
Absorption spectra were measured using a high-performance Specord S 600 diode spectrophotometer (Jena Analyst, DE). The required amount of each sample was diluted in DMSO, added to 1-cm quartz cuvette, and measured within the selected absorbance spectrum range, against pure DMSO as a blank, at a constant temperature of 25 °C. The results were evaluated using WinASPECT® software (Jena Analyst, DE).
Fluorescence quantum yield was determined following a previously described protocol ([Kozma et al., 2005]; [Magde et al., 1999]; [Williams et al., 1983]). The kinetics of the incorporation of compounds into liposome membrane models was determined using steady-state fluorescence spectroscopy at a constant excitation and emission wavelength, according to the corresponding sample excitation and emission maxima. We added 50 μL of LNP suspension to 0.1 mM of the analyte in PBS, and monitored the increase of fluorescence intensity over the time range from 0 to 1400s. The preparation and characterization of the liposomal suspension is described in the supporting information (Fig. S4).
1. Supplementary material and methods
1.1. Fluorescence quantum yield (QY) determination
The steady-state fluorescence and absorption data were used for quantum yield determination. QY was determined relative to a reference compound, rhodamin B. Absorbance in the range of 0.01–0.1 was used to calculate the QY. We plotted two calibration curves of integrated emission fluorescence intensity as a function of sample absorbance. […]

Another data set deals with SARS-CoV-2. Nature of the data set: Photodynamic inactivation of SARS-CoV-2 virions. The class given is cell-based. Conditions: 465–480 nm, 30 mW/cm^2, 10 min, then 60 min at 37 °C in the dark; plaque assay. The method, then: Virus in DMEM (titer of 10^5 PFU/mL) was mixed with the compounds (0–10 µM) in a microtiter plate, in triplicate, and irradiated for 10 min at RT with LEDs (465–480 nm) having an approximate power density of 30 mW/cm^2 (device description in supplement). As a negative control, virus was incubated for 10 min in the dark at RT. Subsequently, both irradiated and non-irradiated virus samples were incubated in the dark at 37 °C for 60 min. All manipulation with the samples before and after this incubation, i.e., mixing the compound with the virus, pipetting into a microtiter plate, etc., were performed in daylight. Viral titers were determined by plaque assays (performed also in daylight) and expressed as PFU/mL, as previously described ([Stefanik et al., 2021]). To eliminate the influence of daylight on compound activity, the whole experiment, including all manipulation with samples, was performed in a dark room under red light. The virus sample was mixed with the indicated compounds at concentrations from 0 to 10 μM or 100 μM, incubated for 60 min at 37 °C and virus viability was evaluated using a plaque assay (Fig. 9A).

Data set [5] concerns Vero cells. Nature of the data set: Light-induced cytotoxicity in Vero cells. Type of data set: cell-based, African Green Monkey. Conditions: 0–10 µM, 465–480 nm 10 min, then 24 h in the dark. The method, then:
To determine the light-induced cytotoxicity of the tested compounds, Vero cells were cultured for 24 h in 96-well plates to form a confluent monolayer, and then were treated with the tested compounds at concentrations of 0 to 10 µM. Then, the compound-treated cells were irradiated for 10 min at RT with LEDs (465–480 nm) having an approximate power density of 30 mW/cm^2 (device description in Fig. S7). As a negative control, compound-treated cells were incubated for 10 min in the dark at RT. Subsequently, both irradiated and non-irradiated cell monolayers were incubated in the dark at 37 °C for 24 h. Then, the cell culture medium was aspirated and the potential cytotoxicity of the tested perylene derivatives was determined based on cell viability using Cell Counting Kit-8 (Dojindo Molecular Technologies, Munich, Germany) according to the manufacturer's instructions.

A short description of data set [6]: ROS generation rate / quantum yield, DPBF bleaching in methanol. Type of data set: physicochemical. The settings on record: for φROS (ROS generation quantum yield): in methanol, DPBF trap, 450–470 nm illumination, riboflavin as reference. An excerpt:
The ROS generation rate was estimated using the spectrophotometric method, based on the absorption changes of 1,3-diphenylisobenzofuran (DPBF, Sigma Aldrich, Germany) in methanol solution. Irreversible oxidation of DPBF by singlet oxygen results in peroxide formation, and DPBF bleaching. When light of 400–450 nm was used as actinic, DPBF bleaching occurred without any photosensitizer (PS) in solution. Therefore, to study photosensitized ROS generation, we used a white MCWHLP1 LED (Thorlabs, USA) with filters to limit the radiation to the 450–470 nm range (5.5 mW/cm^2).
Spectrophotometric measurements were performed in a Qpod 2e (Quantum Northwest, USA) thermostated cuvette holder at 25 °C with magnetic stirring (500 rpm). Absorption spectra were recorded using a MayaPro spectrophotometer (Ocean Optics, USA) and a stabilized white light source with a SLS201L tungsten lamp (Thorlabs, USA). Illumination was uniform over the entire volume of the cuvette, to prevent artifacts associated with the diffusion of non-reacted components into the illuminated volume of the cuvette. In this case, the rate of irreversible bleaching of DPBF (412 nm) was the same under both continuous and pulsed irradiation with equal total irradiation time. Illumination was performed in a pulsed mode (Fig. S5A), with 1 s of illumination followed by 5 s of dark adaptation, during which the absorption spectrum of the PS-DPBF solution was recorded. Data processing was performed as previously described ([Gvozdev et al., 2020]).

On the set-up of data set [7]: method as in Magde et al., 1999. Conditions: Water; λ = 514 nm; ref Magde et al., 1999; cited from earlier work.

For the molecule `CN(C)c1ccc(C#Cc2ccc3c4cccc5cccc(c6cccc2c63)c54)cc1` [Compound 14], the “cell viability (in words)” value with Vero cells [1] is given as “moderately decreased cell viability”. In addition, the “ROS generation, DMA trap, under blue light” value in data set [2] was “minimal photodynamic activities”. In addition, the “solubility in water (in words)” value in data set [3] was “poorly soluble in water”. Besides, the “penetration into liposomal membranes (in words)” value in data set [3] (10 µM in PBS) is “slow and very gradual”. Also, in data set [3] (at 540 nm, 10 µM in PBS), the “fluorescence intensity after mixing with liposomes” value is recorded as 10^3 CPS. The fluorescence quantum yield in data set [4] was 8%. Moreover, the “antiviral activity after blue light irradiation of virus-compound mixture” value in the data set with SARS-CoV-2 is reported as “viral titer decreased by less than an order of magnitude”. The “effect of blue light irradiation on cytotoxicity” value with Vero cells [5] is “no effect”. The “φROS (ROS generation quantum yield)” value in data set [6] is on record as 7.1 ± 0.2%. Also, the “photodynamic activity (DPBF trap, in words)” value in data set [6] (methanol, 450–470 nm) was “minimal”.
With `O=C(O)c1ccc(-c2ccc3c4cccc5cccc(c6cccc2c63)c54)s1` [Compound 16], the “penetration into liposomal membranes (in words)” value in data set [3] (10 µM in PBS) was “penetrated the liposomal membranes very quickly and efficiently”. The “steady-state fluorescence signal after mixing with liposomes” value in data set [3] (at 520 nm, after 1400 s, 10 µM in PBS) is recorded as “about 10^5 CPS”. Further, in data set [4], the fluorescence quantum yield was determined as 61%. Besides, the “φROS (ROS generation quantum yield)” value in data set [6] is 59.0 ± 1.8%.
As to `CCN(CC)c1ccc2c(-c3ccccc3C(=O)O)c3ccc(=[N+](CC)CC)cc-3oc2c1.[Cl-]` [rhodamin B], the “QYr (fluorescence quantum yield of reference)” value in data set [7] is 31%.
